Laboratory results reported in patent publication US10913727B2, “Modulators of the integrated stress pathway” (Calico Life Sciences LLC, priority 2016, dated 2021).

Test system: HEK293T cells carrying the ATF4 luciferase reporter
Test: ATF4-Luc assay, in vitro model of Vanishing Cell White Matter Disease (VWMD)
Format: cell-based
Details: Homo sapiens, HEK-293T, 1 μg/mL tunicamycin, 7 hours, One Glo luminescence
Procedure, shortened: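 Compound at 200 nM and tunicamycin at 1 μg/mL were given together for 7 h to HEK293T cells stably transduced with an ATF4 5′-UTR-driven firefly luciferase reporter. Read-out by luminescence, reported as EC50.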

SMILES	EC50
O=C(COc1ccc(Cl)c(F)c1)NC12CC(NC(=O)c3cc(OC(F)F)ccn3)(C1)C2 [Compound 300, N-{3-[2-(4-chloro-3-fluorophenoxy)acetamido]bicyclo[1.1.1]pentan-1-yl}-4-(difluoromethoxy)pyridine-2-carboxamide]	250 to 1000 nM
O=C(COc1ccc(Cl)c(Cl)c1)NC12CC(NC(=O)c3cnc(C4CC4)o3)(C1)C2 [Compound 614, 2-cyclopropyl-N-{3-[2-(3,4-dichlorophenoxy)acetamido]bicyclo[1.1.1]pentan-1-yl}-1,3-oxazole-5-carboxamide]	50 to 250 nM
O=C(COc1ccc(Cl)c(F)c1)NC12CCC(NC(=O)c3ccc(OC(F)F)cn3)(C1)C2 [Compound 337, N-{4-[2-(4-chloro-3-fluorophenoxy)acetamido]bicyclo[2.1.1]hexan-1-yl}-5-(difluoromethoxy)pyridine-2-carboxamide]	250 to 1000 nM
Cc1cnc(C(=O)NC23CCC(NC(=O)COc4ccc(Cl)c(F)c4)(CC2)C[C@@H]3O)cn1 [Compound 733, N-{(2S)-4-[2-(4-chloro-3-fluorophenoxy)acetamido]-2-hydroxybicyclo[2.2.2]octan-1-yl}-5-methylpyrazine-2-carboxamide]	> 2000 nM
CCn1ccc(C(=O)NC23CC(NC(=O)COc4ccc(Cl)c(F)c4)(C2)C3)n1 [Compound 850, N-{3-[2-(4-chloro-3-fluorophenoxy)acetamido]bicyclo[1.1.1]pentan-1-yl}-1-ethyl-1H-pyrazole-3-carboxamide]	50 to 250 nM
Cc1ccn2cc(C(=O)NC34CCC(NC(=O)COc5ccc(Cl)c(F)c5)(CC3)C(O)C4)nc2c1 (stereo not shown) [Compound 598, N-{4-[2-(4-chloro-3-fluorophenoxy)acetamido]-3-hydroxybicyclo[2.2.2]octan-1-yl}-7-methylimidazo[1,2-a]pyridine-2-carboxamide]	50 to 250 nM
O=C(COc1ccc(Cl)c(F)c1)NC12CCC(NC(=O)c3cccs3)(CC1)CC2O (stereo not shown) [Compound 611, N-{4-[2-(4-chloro-3-fluorophenoxy)acetamido]-3-hydroxybicyclo[2.2.2]octan-1-yl}thiophene-2-carboxamide]	< 50 nM
Cc1cc(C(=O)NC23CC(NC(=O)COc4ccc(Cl)c(F)c4)(C2)C3)c(C)n1C1CC1 [Compound 842, N-{3-[2-(4-chloro-3-fluorophenoxy)acetamido]bicyclo[1.1.1]pentan-1-yl}-1-cyclopropyl-2,5-dimethyl-1H-pyrrole-3-carboxamide]	> 2000 nM
CCc1csc(C(=O)NC23CC(NC(=O)COc4ccc(Cl)c(F)c4)(C2)C3)n1 [Compound 919, N-{3-[2-(4-chloro-3-fluorophenoxy)acetamido]bicyclo[1.1.1]pentan-1-yl}-4-ethyl-1,3-thiazole-2-carboxamide]	< 50 nM
O=C(COc1ccc(Cl)c(F)c1)NC12CC(NC(=O)c3ncn4ccccc34)(C1)C2 [Compound 782, N-{3-[2-(4-chloro-3-fluorophenoxy)acetamido]bicyclo[1.1.1]pentan-1-yl}imidazo[1,5-a]pyridine-1-carboxamide]	> 2000 nM
CN(CC1CCC1)c1cnc(C(=O)NC23CC(NC(=O)COc4ccc(Cl)c(F)c4)(C2)C3)cn1 [Compound 420, N-{3-[2-(4-chloro-3-fluorophenoxy)acetamido]bicyclo[1.1.1]pentan-1-yl}-5-[(cyclobutylmethyl)(methyl)amino]pyrazine-2-carboxamide]	> 2000 nM
COc1cnc(C(=O)NC23CC(NC(=O)COc4ccc(Cl)c(F)c4)(C2)C3)cn1 [Compound 124, N-{3-[2-(4-chloro-3-fluorophenoxy)acetamido]bicyclo[1.1.1]pentan-1-yl}-5-methoxypyrazine-2-carboxamide]	1000 to 2000 nM
NS(=O)(=O)c1ccc(C(=O)NC23CC(NC(=O)COc4ccc(Cl)c(F)c4)(C2)C3)o1 [Compound 905, N-{3-[2-(4-chloro-3-fluorophenoxy)acetamido]bicyclo[1.1.1]pentan-1-yl}-5-sulfamoylfuran-2-carboxamide]	> 2000 nM
